The Ki is the dissociation constant of the complex between target and ligand, obtained from inhibition or displacement. Read a low Ki as higher affinity.

Ki data for 22 molecules are collected here from US9957263B2, “Bromodomain inhibitors” (AbbVie Inc., priority 2013, dated 2018).

In assay [1] the target is BRD4 (BDII_E352-M457) (Homo sapiens (Human), UniProt O60885). As to the kind of experiment: TR-FRET bromodomain binding assay, BRD4 second bromodomain. The following applies: His-tagged BD2, Alexa647-labeled probe 30 nM. An outline of the steps: (§1)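 His-tagged BRD4 BD1 (K57-E168) or BD2 at 8 nM, 1 nM Eu-anti-His antibody and Alexa647 BET-inhibitor probe (100 nM for BDI, 30 nM for BDII) in pH 6.0 phosphate buffer, 2% DMSO, compound 50 μM-0.85 nM; 1 h at RT, TR-FRET read. IC50 by 4-parameter fit, Ki from probe Kd and concentration.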
(In general: In TR-FRET formats the signal depends on donor and acceptor labels being close together.)

Assay [2] addresses BRD4 (BDI_K57-E168) (Homo sapiens (Human), UniProt O60885). Put plainly: TR-FRET bromodomain binding assay, BRD4 first bromodomain. As to conditions: His-tagged BD1, Alexa647-labeled probe 100 nM. In outline:
as §1

`CCNC(=O)c1cc2c(-c3cc(S(=O)(=O)CC)ccc3Oc3c(C)cccc3NCC3CC3)cn(C)c(=O)c2[nH]1` [Example 119, 4-[2-{2-[(cyclopropylmethyl)amino]-6-methylphenoxy}-5-(ethylsulfonyl)phenyl]-N-ethyl-6-methyl-7-oxo-6,7-dihydro-1H-pyrrolo[2,3-c]pyridine-2-carboxamide]: the results for the Ki in assay [1] and in assay [2] were 6.69 nM and 1510 nM, respectively.
Regarding `CCS(=O)(=O)c1ccc(Oc2c(C)cccc2Cl)c(-c2cn(C)c(=O)c3[nH]c(C(=O)NCC#N)cc23)c1` [Example 120, 4-[2-(2-chloro-6-methylphenoxy)-5-(ethylsulfonyl)phenyl]-N-(cyanomethyl)-6-methyl-7-oxo-6,7-dihydro-1H-pyrrolo[2,3-c]pyridine-2-carboxamide], the Ki in assay [1] is 158 nM; in assay [2], more than 238 nM.
The like results for `CCS(=O)(=O)c1ccc(Oc2c(C)cccc2Cl)c(-c2cn(C)c(=O)c3[nH]c(C(=O)NC(C)C(=O)NC)cc23)c1` (centres unmarked) [Example 121, 4-[2-(2-chloro-6-methylphenoxy)-5-(ethylsulfonyl)phenyl]-6-methyl-N-[1-(methylamino)-1-oxopropan-2-yl]-7-oxo-6,7-dihydro-1H-pyrrolo[2,3-c]pyridine-2-carboxamide] were, in that order, 7.2 nM and 62.1 nM.
On the same counts, the results for `CCS(=O)(=O)c1ccc(Oc2c(C)cccc2Cl)c(-c2cn(C)c(=O)c3[nH]c(C(=O)NCC(=O)N4CCCCC4)cc23)c1` [Example 122, 4-[2-(2-chloro-6-methylphenoxy)-5-(ethylsulfonyl)phenyl]-6-methyl-7-oxo-N-[2-oxo-2-(piperidin-1-yl)ethyl]-6,7-dihydro-1H-pyrrolo[2,3-c]pyridine-2-carboxamide] are 7.58 nM and 39.1 nM.
On the same counts, the results for `CCS(=O)(=O)c1ccc(Oc2c(C)cccc2Cl)c(-c2cn(C)c(=O)c3[nH]c(C(=O)NCCC#N)cc23)c1` [Example 123, 4-[2-(2-chloro-6-methylphenoxy)-5-(ethylsulfonyl)phenyl]-N-(2-cyanoethyl)-6-methyl-7-oxo-6,7-dihydro-1H-pyrrolo[2,3-c]pyridine-2-carboxamide] are 5.6 nM and 39.9 nM.
In the case of `CCS(=O)(=O)c1ccc(Oc2c(C)cccc2Cl)c(-c2cn(C)c(=O)c3[nH]c(C(=O)NCC(=O)NC)cc23)c1` [Example 124, 4-[2-(2-chloro-6-methylphenoxy)-5-(ethylsulfonyl)phenyl]-6-methyl-N-[2-(methylamino)-2-oxoethyl]-7-oxo-6,7-dihydro-1H-pyrrolo[2,3-c]pyridine-2-carboxamide], the Ki in assay [1] was 10.1 nM; in assay [2] it was 88.3 nM.
Take `CN1CCC(N2CCN(Cc3cc4c(-c5cc(S(C)(=O)=O)ccc5Oc5ccc(F)cc5F)cn(C)c(=O)c4[nH]3)CC2)CC1` [Example 125, 4-[2-(2,4-difluorophenoxy)-5-(methylsulfonyl)phenyl]-6-methyl-2-{[4-(1-methylpiperidin-4-yl)piperazin-1-yl]methyl}-1,6-dihydro-7H-pyrrolo[2,3-c]pyridin-7-one]: the Ki in assay [1] was determined as 189 nM; in assay [2], 8.47 nM.
The like results for `Cn1cc(-c2cc(S(C)(=O)=O)ccc2Oc2ccc(F)cc2F)c2cc(CN3CCCN(c4ccccn4)CC3)[nH]c2c1=O` [Example 126, 4-[2-(2,4-difluorophenoxy)-5-(methylsulfonyl)phenyl]-6-methyl-2-{[4-(pyridin-2-yl)-1,4-diazepan-1-yl]methyl}-1,6-dihydro-7H-pyrrolo[2,3-c]pyridin-7-one] were, in that order, 276 nM and 54.5 nM.
With `Cn1cc(-c2cc(S(C)(=O)=O)ccc2Oc2ccc(F)cc2F)c2cc(CN3CCOCC3c3ccco3)[nH]c2c1=O` (centres unmarked) [Example 127, 4-[2-(2,4-difluorophenoxy)-5-(methylsulfonyl)phenyl]-2-{[3-(furan-2-yl)morpholin-4-yl]methyl}-6-methyl-1,6-dihydro-7H-pyrrolo[2,3-c]pyridin-7-one], the figures for the Ki in assay [1] and in assay [2] were 93.8 nM and 15.8 nM, respectively.
The like results for `Cc1nnc(C)n1C1CCN(Cc2cc3c(-c4cc(S(C)(=O)=O)ccc4Oc4ccc(F)cc4F)cn(C)c(=O)c3[nH]2)CC1` [Example 128, 4-[2-(2,4-difluorophenoxy)-5-(methylsulfonyl)phenyl]-2-{[4-(3,5-dimethyl-4H-1,2,4-triazol-4-yl)piperidin-1-yl]methyl}-6-methyl-1,6-dihydro-7H-pyrrolo[2,3-c]pyridin-7-one] were, in that order, 182 nM and 47.8 nM.
On the same counts, the results for `Cc1cc(C)n(C2CN(Cc3cc4c(-c5cc(S(C)(=O)=O)ccc5Oc5ccc(F)cc5F)cn(C)c(=O)c4[nH]3)C2)n1` [Example 129, 4-[2-(2,4-difluorophenoxy)-5-(methylsulfonyl)phenyl]-2-{[3-(3,5-dimethyl-1H-pyrazol-1-yl)azetidin-1-yl]methyl}-6-methyl-1,6-dihydro-7H-pyrrolo[2,3-c]pyridin-7-one] are 87 nM and 15.9 nM.
On the same counts, the results for `Cn1cc(-c2cc(S(C)(=O)=O)ccc2Oc2ccc(F)cc2F)c2cc(CN3CCC(N4CCOCC4)CC3)[nH]c2c1=O` [Example 130, 4-[2-(2,4-difluorophenoxy)-5-(methylsulfonyl)phenyl]-6-methyl-2-{[4-(morpholin-4-yl)piperidin-1-yl]methyl}-1,6-dihydro-7H-pyrrolo[2,3-c]pyridin-7-one] are 108 nM and 10.1 nM.
For `Cc1noc(C2CCCN2Cc2cc3c(-c4cc(S(C)(=O)=O)ccc4Oc4ccc(F)cc4F)cn(C)c(=O)c3[nH]2)n1` (centres unmarked) [Example 131, 4-[2-(2,4-difluorophenoxy)-5-(methylsulfonyl)phenyl]-6-methyl-2-{[2-(3-methyl-1,2,4-oxadiazol-5-yl)pyrrolidin-1-yl]methyl}-1,6-dihydro-7H-pyrrolo[2,3-c]pyridin-7-one], the Ki in assay [1] is 165 nM; in assay [2], 49.7 nM.
The like results for `Cn1cc(-c2cc(S(C)(=O)=O)ccc2Oc2ccc(F)cc2F)c2cc(CN3CCN(c4ccccn4)CC3)[nH]c2c1=O` [Example 132, 4-[2-(2,4-difluorophenoxy)-5-(methylsulfonyl)phenyl]-6-methyl-2-{[4-(pyridin-2-yl)piperazin-1-yl]methyl}-1,6-dihydro-7H-pyrrolo[2,3-c]pyridin-7-one] were, in that order, 128 nM and 26.9 nM.
For the molecule `CCNC(=O)c1cc2c(-c3cc(S(=O)(=O)CC)ccc3Oc3c(C)cccc3NCC3CCOC3)cn(C)c(=O)c2[nH]1` (centres unmarked) [Example 133, N-ethyl-4-[5-(ethylsulfonyl)-2-{2-methyl-6-[(tetrahydrofuran-3-ylmethyl)amino]phenoxy}phenyl]-6-methyl-7-oxo-6,7-dihydro-1H-pyrrolo[2,3-c]pyridine-2-carboxamide], the results for the Ki in assay [1] and in assay [2] were 20.3 nM and 2130 nM, respectively.
In the case of `CCNC(=O)/C=C/c1cc2c(-c3cc(S(=O)(=O)CC)ccc3Oc3c(C)cccc3C)cn(C)c(=O)c2[nH]1` [Example 134, (2E)-3-{4-[2-(2,6-dimethylphenoxy)-5-(ethylsulfonyl)phenyl]-6-methyl-7-oxo-6,7-dihydro-1H-pyrrolo[2,3-c]pyridin-2-yl}-N-ethylprop-2-enamide], the inhibition constant Ki in assay [1] was determined as 1.62 nM; in assay [2], 23.4 nM.
On the same counts, the results for `Cc1cccc(C)c1Oc1ccc(S(C)(=O)=O)cc1-c1cn(C)c(=O)c2[nH]c(-c3nc(C4CC4)no3)cc12` [Example 135, 2-(3-cyclopropyl-1,2,4-oxadiazol-5-yl)-4-[2-(2,6-dimethylphenoxy)-5-(methylsulfonyl)phenyl]-6-methyl-1,6-dihydro-7H-pyrrolo[2,3-c]pyridin-7-one] are 23.1 nM and 54.9 nM.
The like results for `Cc1cccc(C)c1Oc1ccc(S(C)(=O)=O)cc1-c1cn(C)c(=O)c2[nH]c(-c3nc(-c4cccnc4)no3)cc12` [Example 138, 4-[2-(2,6-dimethylphenoxy)-5-(methylsulfonyl)phenyl]-6-methyl-2-[3-(pyridin-3-yl)-1,2,4-oxadiazol-5-yl]-1,6-dihydro-7H-pyrrolo[2,3-c]pyridin-7-one] were, in that order, 7.38 nM and 88.5 nM.
On the same counts, the results for `CCNC(=O)c1cc2c(-c3cc(S(=O)(=O)CC)ccc3Oc3c(C)cccc3Cn3cccn3)cn(C)c(=O)c2[nH]1` [Example 145, N-ethyl-4-{5-(ethylsulfonyl)-2-[2-methyl-6-(1H-pyrazol-1-ylmethyl)phenoxy]phenyl}-6-methyl-7-oxo-6,7-dihydro-1H-pyrrolo[2,3-c]pyridine-2-carboxamide] are 8.7 nM and 807 nM.
Consider `CCNC(=O)c1cc2c(-c3cc(S(=O)(=O)CC)ccc3Oc3c(C)cccc3CN3CCOCC3)cn(C)c(=O)c2[nH]1` [Example 146, N-ethyl-4-{5-(ethylsulfonyl)-2-[2-methyl-6-(morpholin-4-ylmethyl)phenoxy]phenyl}-6-methyl-7-oxo-6,7-dihydro-1H-pyrrolo[2,3-c]pyridine-2-carboxamide], for which the Ki in assay [1] is 50.1 nM; in assay [2], 3280 nM.
On the same counts, the results for `CCNC(=O)c1cc2c(-c3cc(S(=O)(=O)CC)ccc3Oc3c(C)cccc3CN3CCCCC3)cn(C)c(=O)c2[nH]1` [Example 147, N-ethyl-4-{5-(ethylsulfonyl)-2-[2-methyl-6-(piperidin-1-ylmethyl)phenoxy]phenyl}-6-methyl-7-oxo-6,7-dihydro-1H-pyrrolo[2,3-c]pyridine-2-carboxamide] are 57.5 nM and 761 nM.
For the molecule `CCNC(=O)c1cc2c(-c3cc(S(=O)(=O)CC)ccc3Oc3c(C)cccc3CCc3ccccc3)cn(C)c(=O)c2[nH]1` [Example 148, N-ethyl-4-{5-(ethylsulfonyl)-2-[2-methyl-6-(2-phenylethyl)phenoxy]phenyl}-6-methyl-7-oxo-6,7-dihydro-1H-pyrrolo[2,3-c]pyridine-2-carboxamide], the Ki in assay [1] amounted to 7.02 nM; in assay [2], 5720 nM.
